Key:
[1] = molecular target: Estrogen receptor beta (Homo sapiens) (UniProt Q92731); test: Binding affinity to human ERbeta relative to estradiol by radiometric binding assay
Homo sapiens = species: Homo sapiens; test: Selectivity for ERbeta over ERalpha
[2] = molecular target: Estrogen receptor alpha (Homo sapiens) (UniProt P03372); test: Binding affinity to human ERalpha relative to estradiol by radiometric binding assay
Sequence of Estrogen receptor alpha (Homo sapiens) (P03372 whole entry, looked up): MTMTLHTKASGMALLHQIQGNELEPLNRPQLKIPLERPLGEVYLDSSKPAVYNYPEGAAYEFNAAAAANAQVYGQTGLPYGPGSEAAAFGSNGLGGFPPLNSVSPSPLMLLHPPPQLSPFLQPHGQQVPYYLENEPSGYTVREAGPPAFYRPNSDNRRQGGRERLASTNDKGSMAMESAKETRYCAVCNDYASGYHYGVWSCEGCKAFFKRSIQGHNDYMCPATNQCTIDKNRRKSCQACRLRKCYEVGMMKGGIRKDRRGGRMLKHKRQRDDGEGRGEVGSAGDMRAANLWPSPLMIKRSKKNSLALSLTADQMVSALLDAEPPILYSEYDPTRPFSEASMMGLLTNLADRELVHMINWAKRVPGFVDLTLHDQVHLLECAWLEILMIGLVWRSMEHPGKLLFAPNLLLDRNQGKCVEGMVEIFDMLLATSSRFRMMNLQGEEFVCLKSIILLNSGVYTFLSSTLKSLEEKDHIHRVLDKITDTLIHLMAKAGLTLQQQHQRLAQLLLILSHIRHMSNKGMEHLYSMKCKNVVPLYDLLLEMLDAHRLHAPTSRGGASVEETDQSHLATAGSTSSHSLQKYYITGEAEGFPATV

Sequence of Estrogen receptor beta (Homo sapiens) (Q92731 whole entry, looked up): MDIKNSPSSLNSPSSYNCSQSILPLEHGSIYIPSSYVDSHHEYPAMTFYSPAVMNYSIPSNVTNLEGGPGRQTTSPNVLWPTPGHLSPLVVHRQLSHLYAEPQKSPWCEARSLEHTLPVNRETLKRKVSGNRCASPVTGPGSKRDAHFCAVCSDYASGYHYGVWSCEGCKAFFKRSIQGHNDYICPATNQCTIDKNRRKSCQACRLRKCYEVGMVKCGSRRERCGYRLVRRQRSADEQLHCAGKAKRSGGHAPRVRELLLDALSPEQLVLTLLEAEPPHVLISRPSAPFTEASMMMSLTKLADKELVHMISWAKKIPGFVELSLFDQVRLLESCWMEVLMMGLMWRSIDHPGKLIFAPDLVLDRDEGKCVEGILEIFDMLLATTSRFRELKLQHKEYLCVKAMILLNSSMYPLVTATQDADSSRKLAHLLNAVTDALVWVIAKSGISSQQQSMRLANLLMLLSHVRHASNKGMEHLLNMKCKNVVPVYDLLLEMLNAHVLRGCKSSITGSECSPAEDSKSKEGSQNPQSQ

| SMILES | relative binding affinity (RBA) [1] | Ratio (Homo sapiens) | relative binding affinity (RBA) [2] |
| --- | --- | --- | --- |
| COC(=O)C(C(=O)OC)C1CCCC(=C(c2ccc(O)cc2)c2ccc(O)cc2)C1 (configuration not stated) | 0.234 | 0.012 | 19.5 |
| Oc1ccc(C(=C2CCCCCC2)c2ccc(O)cc2)cc1 | 354 | 3.2 | 110 |
| COC(=O)CC1CCCC(=C(c2ccc(O)cc2)c2ccc(O)cc2)C1 (configuration not stated) | 10.3 | 0.18 | 58.5 |
| COC(=O)C1CCCC(=C(c2ccc(O)cc2)c2ccc(O)cc2)C1 (configuration not stated) | 36.5 | 1.5 | 23.7 |
| OCC1CCCC(=C(c2ccc(O)cc2)c2ccc(O)cc2)C1 (configuration not stated) | 39.6 | 1.6 | 24.8 |
| Oc1ccc(C(=C2CCCC(CCCF)C2)c2ccc(O)cc2)cc1 (configuration not stated) | 91.4 | 0.57 | 160 |
| OCCC1CCCC(=C(c2ccc(O)cc2)c2ccc(O)cc2)C1 (configuration not stated) | 57.6 | 1.7 | 33.9 |
| Oc1ccc(C(=C2CCCC(CCF)C2)c2ccc(O)cc2)cc1 (configuration not stated) | 129 | 1.1 | 122 |
| Oc1ccc(C(=C2CCC(CCOCCCCF)CC2)c2ccc(O)cc2)cc1 (configuration not stated) | 1.45 | 0.38 | 3.77 |
| OCCCC1CCCC(=C(c2ccc(O)cc2)c2ccc(O)cc2)C1 (configuration not stated) | 46.1 | 0.98 | 47.2 |

Other lines, results leading:

| relative binding affinity (RBA) [1] | Ratio (Homo sapiens) | relative binding affinity (RBA) [2] | SMILES |
| --- | --- | --- | --- |
| 137 | 7.7 | 17.8 | Oc1ccc(C(=C2CCCC2)c2ccc(O)cc2)cc1 |
| 3.02 | 0.45 | 6.77 | CCOC(=O)C1CCC(=C(c2ccc(O)cc2)c2ccc(O)cc2)CC1 (configuration not stated) |
| 75.6 | 1.2 | 62.7 | CCC1CCC(=C(c2ccc(O)cc2)c2ccc(O)cc2)CC1 (configuration not stated) |
| 0.841 | 0.99 | 0.846 | OCC1CCC(=C(c2ccc(O)cc2)c2ccc(O)cc2)CC1 (configuration not stated) |
| 61.8 | 2.3 | 27 | Oc1ccc(C(=C2CCC(F)CC2)c2ccc(O)cc2)cc1 (configuration not stated) |
| 1.72 | 0.16 | 10.7 | COC(=O)CC1CCC(=C(c2ccc(O)cc2)c2ccc(O)cc2)CC1 (configuration not stated) |
| 18.9 | 1.2 | 15.9 | Oc1ccc(C(=C2CCC(CCF)CC2)c2ccc(O)cc2)cc1 (configuration not stated) |
| 0.372 | 0.14 | 2.61 | OCCC1CCC(=C(c2ccc(O)cc2)c2ccc(O)cc2)CC1 (configuration not stated) |
| 20.5 | 3.7 | 5.61 | Oc1ccc(C(=C2CCC2)c2ccc(O)cc2)cc1 |
| 2.82 | 0.58 | 4.88 | CCOCC1CCC(=C(c2ccc(O)cc2)c2ccc(O)cc2)CC1 (configuration not stated) |
| 41.5 | 2.3 | 18.1 | Oc1ccc(C(=C2CCC(CF)CC2)c2ccc(O)cc2)cc1 (configuration not stated) |
| 274 | 4.1 | 66.5 | CC1CCC(=C(c2ccc(O)cc2)c2ccc(O)cc2)CC1 (configuration not stated) |
| 0.307 | 0.94 | 0.327 | Oc1ccc(C(=C2CCC(O)CC2)c2ccc(O)cc2)cc1 (configuration not stated) |
| 285 | 2.3 | 124 | Oc1ccc(C(=C2CCCCC2)c2ccc(O)cc2)cc1 |
